# Data as given in patent publication US20050209157A1, “Short bioactive peptides and methods for their use” (priority 2001, published 2005).
# No end group written: not given here.
# Tests used:
# [1] = tested on: Pseudomonas aeruginosa ATCC 9027; test: Antimicrobial assay I, MIC by OD measurement; assay type: cell-based; details: 37° C. for 24 hours, absorbance 620 nm
# Excerpt: (§1) The data for the following antimicrobial assay of the peptides have been obtained by making OD measurements in in vitro cell culture experiments with and without added peptide. The protocol used is as follows.
# (§2) Cell lines included Staphylococcus aureus ATCC 6538 or 25923, Pseudomonas aeruginosa ATCC 9027 or 27853. Medium used were Antibiotic Medium 3 (Difco), Antibiotic Medium 2 (Difco), and 0.85% saline. Controls used were physiological saline, and gentamycin at 50, 25, 10, 5, 1, and 0.1 ppm.
# (§3) Absorbance was read at 620 nm after shaking to resuspend cells.
# (§4) Staph6538 is Staphylococcus aureus ATCC accession number 6538; paerug9027 is Pseudomonas aeruginosa ATCC accession number 9027, yeast is Saccharomyces cerevisiae.
# [2] = tested on: Staphylococcus aureus ATCC 6538; test: Antimicrobial assay I, MIC by OD measurement; assay type: cell-based; details: 37° C. for 24 hours, absorbance 620 nm
# Excerpt: as §1, §2, §3, §4
# [3] = tested on: yeast (Saccharomyces cerevisiae); test: Antimicrobial assay I, yeast assay in RPMI 1640; assay type: cell-based; details: RPMI 1640 media
# Method: as §1, §3
# The yeast assay was performed in RPMI 1640 media (pH 7.0 at 25° C.).
# as §4
# WI38 = details: MTT, 24 hours with peptide; for WI38 LD50: normal fibroblast line
# in vitro [4] = details: human, WI38 normal lung fibroblast cells, LD50 WI38, WI38 normal lung fibroblast line, MTT, 24 hours with peptide
# HeLaS3 = test: Anti-cancer assay, MTT, LD50; assay type: cell-based; details: 24 hours with peptide, cervical carcinoma
# Excerpt: (§5) Numbers are LD50 values (μg/mL).
# PC3 = test: Anti-cancer assay, MTT, LD50; assay type: cell-based; details: 24 hours with peptide, prostate adenocarcinoma
# Excerpt: as §5
# MCF7 = test: Anti-cancer assay, MTT, LD50; assay type: cell-based; details: MCF7 breast adenocarcinoma line, MTT, 24 hours with peptide
# Excerpt: as §5
# H1299 = test: Anti-cancer assay, MTT, LD50; assay type: cell-based; details: 24 hours with peptide, lung large cell carcinoma
# Excerpt: as §5
# SW480 = test: Anti-cancer assay, MTT, LD50; assay type: cell-based; details: SW480 colon adenocarcinoma line, 24 hours with peptide
# Excerpt: as §5
# BMKC = test: Anti-cancer assay, MTT, LD50; assay type: cell-based; details: BMKC cloned melanoma line, 24 hours with peptide
# Excerpt: as §5
# in vitro [5] = assay type: cell-based, human; details: human, human red blood cells, pH 7, hemolytic assay, concentration at 50% hemolysis, 1 hour at 37° C.; read-out: LD50
# Method: This hemolytic assay is based upon that presented in Journal of Peptide Research 53: 82-90 (1999). […] All procedures were performed according to safety protocols pertaining to the handling and disposal of human body fluids.
# Red blood cells (RBCs) were washed three times with PBS (35 mM phosphate buffer 0.15 M NaCl, pH 7.0). RBCs suspended in PBS (0.4% (v/v); about 10 ml per 15 peptides) were prepared. Suspensions (100 μl) were aliquoted to each sample and control tube. Serially diluted peptide solutions (100 μl) were pipetted into the sample tubes. Negative control tubes contained 100 μl PBS; positive control tubes contained 100 μl 1% Triton-X100 detergent. All tubes were incubated for 1 hour at 37° C. The tubes were removed from the incubator and centrifuged at 1000 g for 5 minutes. Supernatant (100 μl) was pipetted to a 96-well polyvinyl chloride plate. The absorbance at 414 nm (A414) was measured, and used to calculate the percent hemolysis according to the following formula. [formula]
Substance,paerug9027 (MIC) [1],staph6538 (MIC) [2],yeast (MIC or MFC) [3],WI38 LD50 (WI38),CC50 at 24 h (in vitro [4]),HeLaS3 LD50 (HeLaS3),PC3 LD50 (PC3),LD50 MCF7 (MCF7),H1299 LD50 (H1299),LD50 SW480 (SW480),LD50 BMKC (BMKC),HC50 at 1 h (in vitro [5]),LD50 WI38 (WI38; WI38 normal lung fibroblast line)
FAKLLAKLAKAKL-NH2 [P65],50 µg/mL,15 µg/mL,200 µg/mL,320 µg/mL,320 µg/mL,210 µg/mL,470 µg/mL,475 µg/mL,450 µg/mL,345 µg/mL,250 µg/mL,950 µg/mL,–
"FALALKA-NH2 [P141, FALALKA-NH2]",50 µg/mL,15 µg/mL,200 µg/mL,420 µg/mL,420 µg/mL,> (> indicates greater than 1000),–,430 µg/mL,> (> indicates greater than 1000),560 µg/mL,465 µg/mL,900 µg/mL,–
"FALALKALKKALKKLKKALKKAL-OH [P1, reference compound]",10 µg/mL,5 µg/mL,> (> indicates greater than 200 μg/mL),–,–,–,–,–,–,–,–,100 µg/mL,–
"FALLKL-NH2 [P168, FALLKL-NH2]",100 µg/mL,50 µg/mL,> (> indicates greater than 200 μg/mL),> (> indicates greater than 1000),–,> (> indicates greater than 1000),> (> indicates greater than 1000),630 µg/mL,> (> indicates greater than 1000),> (> indicates greater than 1000),590 µg/mL,600 µg/mL,> (> indicates greater than 1000)
"ILPWKWPWWPWRR-COOH [P91, reference compound]",> (> indicates greater than 200 μg/mL),10 µg/mL,> (> indicates greater than 200 μg/mL),–,–,20 µg/mL,31 µg/mL,12 µg/mL,64 µg/mL,30 µg/mL,180 µg/mL,–,–
KLLKLLLKLYKKLLKLL-OH [P156],> (> indicates greater than 200 μg/mL),15 µg/mL,> (> indicates greater than 200 μg/mL),230 µg/mL,230 µg/mL,> (> indicates greater than 1000),260 µg/mL,135 µg/mL,–,345 µg/mL,520 µg/mL,10 µg/mL,–
"KWKLFKKIGAVLKVL-NH2 [P53, reference compound]",15 µg/mL,5 µg/mL,50 µg/mL,32 µg/mL,32 µg/mL,30 µg/mL,40 µg/mL,45 µg/mL,65 µg/mL,–,40 µg/mL,20 µg/mL,–
